{"source": "patent US7727275B2", "about": "“Drug-delivery endovascular stent and method of forming the same” (Biosensors International Group, Ltd., priority 2002, dated 2010)", "tested_on": "restenosis (neointimal formation) in severely injured coronary vessels", "assay": "Swine restenosis model, \"high injury\" experiment: QCA and morphometric analysis 28 days after stent implant", "type": "in vivo, out-bred juvenile swine", "from_the_text": "The studies are summarized in Example 4.\nBriefly, the studies compare the extent of restenosis at 28 days following stent implantation, in bare metal stents, polymer-coated stents, and polymer coated stents containing high or low concentrations of sirolimus (rapamycin) and everolimus.\nIt was reasoned that the most challenging treatment condition for the drug eluting stent is a severely injured vessel, as it is known that the degree of restenosis (neointimal formation) increases directly with extent of vessel injury. […]\nDrug-eluting stents using a metal wire-mesh scaffold of a corrugated ring design (i.e. S-Stent) and polymer coating were implanted in out-bred juvenile swine (alternately Yucatan Minipigs for implant studies lasting longer than 28 days), using different dosings of either the drug everolimus or the drug sirolimus. At time of implant, Quantitative Coronary Angiography (QCA) was performed to measure the diameter of the vessels both before and after stent implantation. […]\nA computerized imaging system Image Pro Plus 4.0 through an A.G. Heinze slide microscope for a PC-based system was used for histomorphometric measurements of: • 1. […] To quantify the degree of vascular injury, a score based on the amount and length of tear of the different wall structures was used. […]", "data": [{"smiles": "CO[C@H]1C[C@@H]2CC[C@@H](C)[C@@](O)(O2)C(=O)C(=O)N2CCCC[C@H]2C(=O)O[C@H]([C@H](C)C[C@@H]2CC[C@@H](OCCO)[C@H](OC)C2)CC(=O)[C@H](C)/C=C(\\C)[C@@H](O)[C@@H](OC)C(=O)[C@H](C)C[C@H](C)/C=C/C=C/C=C/1C", "note": "[everolimus, 40-0-(2-hydroxyl)ethyl-rapamycin]", "values": [{"measurement": "extent of restenosis / neointima formation (in words)", "result": "better than, or at least equivalent to the 180 microgram dosage of sirolimus"}]}]}
